In patent US12156893B2, “Oral composition comprising lactic acid bacteria for regulating immune responses and methods related thereto” (The Regents of the University of California, priority 2016, dated 2024):

Tested on: NK cells
Test: Production of cytokines, growth factors and chemokines by NK cells treated with bacterial strains (Bio-Plex 27-plex)
Format: cell-based, human
Design: unit not given here
Method: Different strains of probiotic bacteria were tested for their ability to induce IFN-g as well as a number of important cytokines, chemokines and growth factors (Table 1). To assess the levels of each strain used in the combination we used an activation index established in the lab for the NK cells which consisted of the use of a specific ratio of several important cytokines and chemokines that prevented auto-immunity while enhancing significant activation of NK cells under pathologic conditions. Therefore, the strains were selected to: 1) provide regulated activation of NK cells when no activation of NK cells is desired; 2) when activated by cytokines and/or cross-linking of the important receptors which occurs during functional activation of NK cells in cancer is to induce maximal activation of NK cells; and 3) provide diversity for gut microflora. These criteria allow us to use bacteria to regulate the gut mucosal immunity in such a way that we will only increase NK activation when needed during infections or malignancies. In other words when there is no need for function of NK cells bacteria will regulate NK function to not induce inflammation; however, during need which occurs under the pathological conditions NK cells are triggered to function at the maximal levels. Such coordinated regulation of NK cell function should be effective in halting unwanted inflammation while providing effective and maximal immunity during disease.
Written informed consents, approved by UCLA Institutional Review Board (IRB), were obtained from healthy blood donors, and all procedures were approved by the UCLA-IRB. Peripheral blood was separated using Ficoll-Hypaque centrifugation, after which the white, cloudy layer, containing peripheral blood mononuclear cells (PBMC), was harvested, washed and re-suspended in RPMI 1640 (Invitrogen by Life Technologies, CA) supplemented with 10% FBS and plated on plastic tissue culture dishes. After 1-2 hours of incubation, non-adherent, human peripheral blood lymphocytes (PBL) were collected. NK cells were negatively selected and isolated from PBLs using the EasySep® Human NK cell enrichment kit purchased from Stem Cell Technologies (Vancouver, BC, Canada). Isolated NK cells were stained with anti-CD16 antibody, to measure NK cell purity using flow cytometric analysis. The isolated NK cell population was greater than 90% purity. Purified NK cells were cultured in RPMI Medium 1640 supplemented with 10% FBS (Gemini Bio-Products, CA), 1% antibiotic antimycotic, 1% sodium pyruvate, and 1% MEM non-essential amino acids (Invitrogen, Life Technologies, CA).
Purified NK cells from healthy donors were left untreated or treated with IL-2 (1000 units/ml) or the combination of anti-CD16 mAb (3 μg/ml) and IL-2 (1000 units/ml) in the presence or absence of bacterial strains at 1:5 ratio (NK cell: bacteria) for 12-18 hours. Afterwards, the levels of cytokines, growth factors and chemokines were determined using Bio-Plex Pro Human Cytokine 27-plex Assay Kit.

[1] = Treatment NK (no activation), bacteria 1:5 NK cell:bacteria, 12-18 hours
[2] = Treatment NK + IL-2 (1000 units/ml), bacteria 1:5, 12-18 hours
[3] = Treatment NK + IL-2 + anti-CD16 mAb (3 μg/ml), bacteria 1:5, 12-18 hours

With Lactobacillus paracasei [L. paracasei] the Eotaxin [1] was 4, the G-CSF [1] was 106 and the GM-CSF [1] was 99. The IFN-γ [1] was 186, the IL-1B [1] was 320 and the IL-1ra [1] was 129. The IL-6 [1] was 3029, the IL-8 [1] was 3716 and the IL-10 [1] was 70. It also gave an IL-12p70 [1] of 70, an IL-13 [1] of 8 and an IL-17 [1] of 40. For the same substance, the IP-10 [1] was 53, the MCP-1 [1] was 506 and the RANTES [1] was 1069. The TNF-α [1] was 3809, the Eotaxin [2] was 27 and the G-CSF [2] was 138. For the same substance, the GM-CSF [2] was 157, the IFN-γ [2] was 2112 and the IL-1B [2] was 523. It also gave an IL-1ra [2] of 551, an IL-6 [2] of 7285 and an IL-8 [2] of 3983. The IL-10 [2] was 47, the IL-12p70 [2] was 125 and the IL-13 [2] was 15. The IL-17 [2] was 63, the IP-10 [2] was 90 and the MCP-1 [2] was 337. For the same substance, the RANTES [2] was 6468, the TNF-α [2] was 6776 and the Eotaxin [3] was 40. The G-CSF [3] was 153, the GM-CSF [3] was 215 and the IFN-γ [3] was 2145. For the same substance, the IL-1B [3] was 721, the IL-1ra [3] was 573 and the IL-6 [3] was 6867. For the same substance, the IL-8 [3] was 6385, the IL-10 [3] was 43 and the IL-12p70 [3] was 123. For the same substance, the IL-13 [3] was 27, the IL-17 [3] was 90 and the IP-10 [3] was 92. The MCP-1 [3] was 427, the RANTES [3] was greater than 22609 and the TNF-α [3] was 10128.
Bifidobacterium longum [B. longum] showed an Eotaxin [1] of 32, a G-CSF [1] of 938 and a GM-CSF [1] of 131. It also gave an IFN-γ [1] of 158, an IL-1B [1] of 813 and an IL-1ra [1] of 312. It also gave an IL-6 [1] of 60895, an IL-8 [1] of 9507 and an IL-10 [1] of 298. For the same substance, the IL-12p70 [1] was 42, the IL-13 [1] was 9 and the IL-17 [1] was 74. The IP-10 [1] was 38, the MCP-1 [1] was 80 and the RANTES [1] was 2325. It also gave a TNF-α [1] of 5880, an Eotaxin [2] of 33 and a G-CSF [2] of 244. The GM-CSF [2] was 135, the IFN-γ [2] was 671 and the IL-1B [2] was 408. It also gave an IL-1ra [2] of 472, an IL-6 [2] of 7287 and an IL-8 [2] of 2195. The IL-10 [2] was 52, the IL-12p70 [2] was 47 and the IL-13 [2] was 11. It also gave an IL-17 [2] of 73, an IP-10 [2] of 46 and an MCP-1 [2] of 33. For the same substance, the RANTES [2] was 2189, the TNF-α [2] was 2896 and the Eotaxin [3] was 28. The G-CSF [3] was 386, the GM-CSF [3] was 158 and the IFN-γ [3] was 1282. It also gave an IL-1B [3] of 498, an IL-1ra [3] of 461 and an IL-6 [3] of 2916. For the same substance, the IL-8 [3] was 2906, the IL-10 [3] was 68 and the IL-12p70 [3] was 33. It also gave an IL-13 [3] of 19, an IL-17 [3] of 69 and an IP-10 [3] of 42. It also gave an MCP-1 [3] of 75, an RANTES [3] of 1088 and a TNF-α [3] of 4240.
Work on “Lactobacillus bulgaricus [L. bulgaricus]” yielded an Eotaxin [1] of 7, a G-CSF [1] of 77 and a GM-CSF [1] of 121. For the same substance, the IFN-γ [1] was 144, the IL-1B [1] was 293 and the IL-1ra [1] was 112. The IL-6 [1] was 2518, the IL-8 [1] was 4501 and the IL-10 [1] was 22. It also gave an IL-12p70 [1] of 25, an IL-13 [1] of 9 and an IL-17 [1] of 49. The IP-10 [1] was 88, the MCP-1 [1] was 609 and the RANTES [1] was 3804. For the same substance, the TNF-α [1] was 868, the Eotaxin [2] was 15 and the G-CSF [2] was 69. For the same substance, the GM-CSF [2] was 120, the IFN-γ [2] was 381 and the IL-1B [2] was 123. It also gave an IL-1ra [2] of 449, an IL-6 [2] of 837 and an IL-8 [2] of 1997. It also gave an IL-10 [2] of 12, an IL-12p70 [2] of 21 and an IL-13 [2] of 10. For the same substance, the IL-17 [2] was 55, the IP-10 [2] was 78 and the MCP-1 [2] was 313. It also gave an RANTES [2] of 4737, a TNF-α [2] of 439 and an Eotaxin [3] of 6. The G-CSF [3] was 59, the GM-CSF [3] was 136 and the IFN-γ [3] was 306. For the same substance, the IL-1B [3] was 141, the IL-1ra [3] was 383 and the IL-6 [3] was 685. For the same substance, the IL-8 [3] was 1819, the IL-10 [3] was 9 and the IL-12p70 [3] was 5. The IL-13 [3] was 8, the IL-17 [3] was 50 and the IP-10 [3] was 72. For the same substance, the MCP-1 [3] was 305, the RANTES [3] was 4062 and the TNF-α [3] was 1064.
Lactobacillus plantarum [L. plantarum] was tested, and the Eotaxin [1] was 36, the G-CSF [1] was 236 and the GM-CSF [1] was 122. The IFN-γ [1] was 282, the IL-1B [1] was 645 and the IL-1ra [1] was 323. It also gave an IL-6 [1] of 9500, an IL-8 [1] of 17756 and an IL-10 [1] of 85. For the same substance, the IL-12p70 [1] was 130, the IL-13 [1] was 8 and the IL-17 [1] was 78. The IP-10 [1] was 140, the MCP-1 [1] was 958 and the RANTES [1] was 22609. For the same substance, the TNF-α [1] was 13887, the Eotaxin [2] was 36 and the G-CSF [2] was 129. For the same substance, the GM-CSF [2] was 181, the IFN-γ [2] was 5484 and the IL-1B [2] was 466. The IL-1ra [2] was 500, the IL-6 [2] was 4212 and the IL-8 [2] was 3415. The IL-10 [2] was 43, the IL-12p70 [2] was 184 and the IL-13 [2] was 14. For the same substance, the IL-17 [2] was 73, the IP-10 [2] was 115 and the MCP-1 [2] was 427. The RANTES [2] was 1923, the TNF-α [2] was 9223 and the Eotaxin [3] was 40. It also gave a G-CSF [3] of 125, a GM-CSF [3] of 216 and an IFN-γ [3] of 3087. It also gave an IL-1B [3] of 714, an IL-1ra [3] of 575 and an IL-6 [3] of 3679. The IL-8 [3] was 3247, the IL-10 [3] was 37 and the IL-12p70 [3] was 155. The IL-13 [3] was 20, the IL-17 [3] was 78 and the IP-10 [3] was 92. It also gave an MCP-1 [3] of 335, an RANTES [3] of 4147 and a TNF-α [3] of 7942.
